{"source": "patent US12194019B2", "about": "“Compositions and methods for treating pain with wogonin” (BRIGHAM YOUNG UNIVERSITY, priority 2018, dated 2025)", "key": {"[1]": {"test_system": "TGF-β1 gene expression in human chondrocytes (TC28a2)", "assay": "qRTPCR of TGF-β1 gene expression in human chondrocytes", "assay_type": "cell-based", "procedure": "Human chondrocytes (TC28a2 Sigma-Aldrich, St. Louis, MO, USA) were cultured in EmbryoMax® DMEM (SLM-120 B Millipore, St. Louis, MO, USA) supplemented with 10% Fetal Calf Serum (F-2442-50 ML Sigma-Aldrich, St. Louis, MO, USA) to 80% confluence. Treatments consisted of: • 1. Untreated plate: Remove old media and replace with 10 mL fresh media. Incubate 4 hours. Remove media, rinse 3× with PBS and collect total RNA according to manufacturer's protocol ([…] ZYMO Research, Irvine, CA, USA). • 2. Treat with 10 μM wogonin (dissolved in DMSO). Remove old media and replace with 10 mL conditioned media containing wogonin. Incubate 4 hours. Remove media, rinse 3× with PBS and collect total RNA according to manufacturer's protocol ([…] ZYMO Research, Irvine, CA, USA). • 3. Treat with 1 ng/mL IL-1β (dissolved in dds water). Remove old media and replace with 10 mL conditioned media containing IL-1β. Incubate 4 hours. Remove media, rinse 3× with PBS and collect total RNA according to manufacturer's protocol ([…] ZYMO Research, Irvine, CA, USA). • 4. Treat with 10 μM wogonin; wait 1 hour and add 1 ng/mL IL-1β, incubate 4 hours. Remove old media and replace with 10 mL conditioned media containing wogonin. Incubate 1 hour. […] Quantitative Real-time Polymerase Chain Reaction (qRTPCR) was performed using the Life Technologies One Step Plus Sequence Detection System and Software (Life Technologies). […]"}, "[2]": {"test_system": "BBS 3 gene expression in human chondrocytes (TC28a2)", "assay": "qRTPCR of BBS 3 gene expression in human chondrocytes", "assay_type": "cell-based", "procedure": "Human chondrocytes (TC28a2 Sigma-Aldrich, St. Louis, MO, USA) were cultured in EmbryoMax® DMEM (SLM-120 B Millipore, St. Louis, MO, USA) supplemented with 10% Fetal Calf Serum (F-2442-50 ML Sigma-Aldrich, St. Louis, MO, USA) to 80% confluence. Treatments consisted of: • 1. Untreated plate: Remove old media and replace with 10 mL fresh media. Incubate 4 hours. Remove media, rinse 3× with PBS and collect total RNA according to manufacturer's protocol ([…] ZYMO Research, Irvine, CA, USA). • 2. Treat with 10 μM wogonin (dissolved in DMSO). Remove old media and replace with 10 mL conditioned media containing wogonin. Incubate 4 hours. Remove media, rinse 3× with PBS and collect total RNA according to manufacturer's protocol ([…] ZYMO Research, Irvine, CA, USA). • 3. Treat with 1 ng/mL IL-1β (dissolved in dds water). Remove old media and replace with 10 mL conditioned media containing IL-1β. Incubate 4 hours. Remove media, rinse 3× with PBS and collect total RNA according to manufacturer's protocol ([…] ZYMO Research, Irvine, CA, USA). • 4. Treat with 10 μM wogonin; wait 1 hour and add 1 ng/mL IL-1β, incubate 4 hours. Remove old media and replace with 10 mL conditioned media containing wogonin. Incubate 1 hour. Add 10 μL 1 ng/mL IL-1β. Pipet media up and down in cell culture dish 3× gently to mix. Incubate 4 hours. Remove media, rinse 3× with PBS and collect total RNA according to manufacturer's protocol ([…] ZYMO Research, Irvine, CA, USA). cDNA was made from total RNA according to manufacturer's protocol (1725038 BIO-RAD, Hercules, CA, USA). Quantitative Real-time Polymerase Chain Reaction (qRTPCR) was performed using the Life Technologies One Step Plus Sequence Detection System and Software (Life Technologies). SYBR-green-based PrimeTime assays (IDT) were used to detect human TGF-β1 and BBS 3."}, "[3]": {"test_system": "OA mouse model (surgical destabilization of the medial meniscal ligament, DMM)", "assay": "Activity wheel use after DMM surgery, topical wogonin cream (Example 1)", "assay_type": "in vivo", "procedure": "The use of wogonin for the treatment of osteoarthritic (OA) pain was investigated. Specifically, the benefit of using small doses of wogonin applied topically in a cream with penetration enhancers was investigated. The cream formulation shown in Table 2 was used in this study.\n(§1) An OA mouse model was used to determine the efficacy of wogonin treatment. OA-like disease was induced by surgical destabilization of the medial meniscal ligament (DMM) of laboratory mice. Repair of the knee was assessed using the Modified Mankin Score which is widely accepted as the way to objectively compare OA progression by histological evaluation of a knee joint (See Larkin D J et al., Frontiers in physiology. 2013; 4:121 and Mankin H J. The New England journal of medicine. 1974; 291(24):1285-92). The mice were housed in activity wheel cages linked to a computer for activity tracking throughout the duration of the experiment. Twenty-four hours after surgical intervention the following treatments were applied topically to the affected knee: 0.00000142 g wogonin (500 μM wogonin) (n=6); 0.0000000028 g wogonin (10 μM wogonin) (n=6); and 10 μl vehicle (n=6). Treatment was applied every third day for 28 days.\nAt day 28 this pattern was repeated."}, "OA mouse model (DMM) [4]": {"test_system": "OA mouse model (DMM)", "assay": "Modified Mankin score / histological evaluation of knee joint after DMM surgery (Example 1)", "assay_type": "in vivo", "procedure": "as §1\n(§2) While the wheel use data were encouraging, inhibiting inflammation alone and blocking pain, is insufficient to block the progression of OA. At the conclusion of the experiment (day 28) mice were sacrificed, knees collected, fixed and studied for Modified Mankin score and HtrA1 expression as previously reported in Spencer K MS and Jeffrey Z Kartchner W. Journal of Arthritis. 2015; 04(03). HtrA1 is the first in the biomarker cascade that is associated with OA progression.\n(§3) Mouse knee OA was induced by surgical destabilization of the medial meniscal ligament (DMM surgery) and mice were treated with 10 μM of wogonin. Controls were DMM plus vehicle. […] Note the fissure and rough articular cartilage surface (see arrows) in the control knee."}, "HtrA1": {"test_system": "HtrA1", "assay": "HtrA1 immunohistochemical staining in knee joints after DMM surgery (Example 1)", "assay_type": "in vivo, mouse", "details": "knees treated with 10 μM wogonin, day 28", "source_text": "as §2, §3"}, "OA mouse model (DMM) [5]": {"test_system": "OA mouse model (DMM)", "assay": "Activity wheel use after DMM surgery, wogonin in DMSO or in cream (Example 2)", "assay_type": "in vivo", "procedure": "(§4) A second experiment using small doses of wogonin applied topically either in DMSO or in a cream with penetration enhancers was conducted. In this study, OA was induced by DMM surgery. Twenty four hours after surgery treatment was applied to the affected knee. The treatments included 0.00000142 g wogonin in 10 μl DMSO (500 μM wogonin) applied to the skin at the location of patellar tendon (n=5); 10 μl DMSO applied to the skin at the location of patellar tendon (n=5); 0.0000000028 g wogonin (10 μl G2 Cream E/10 μM wogonin) to the skin at the location of the patellar tendon (n=5). Treatment was applied every third day for 28 days. Immediately after surgery, mice were placed in an activity wheel cage in which wheel use was recorded on a computer. […] At day 28 this pattern was repeated."}, "OA mouse model (DMM) [6]": {"test_system": "OA mouse model (DMM)", "assay": "Biomarker and Mankin scoring of knees (Example 2)", "assay_type": "in vivo", "details": "500 μM (DMSO) vs 10 μM (cream) wogonin", "procedure": "as §4\nAgain, below 1 μM and there would be insufficient wogonin to have an effect. Above 500 μM and there would be too much suppression of inflammation and ceramides. TGF-β1 is inhibited and chondrocytes can't return to homeostasis, […]."}, "mouse formalin test": {"test_system": "mouse formalin test", "details": "intraperitoneal injection, 200 mg/kg; cited from earlier work"}, "MMP-3": {"test_system": "MMP-3", "details": "intra-articular injection, inflammation initiated by IL-1β; cited from earlier work"}}, "note": "Marks after values point to notes of the source that are not given here.", "data": [{"molecule": "IL-1β: pro-inflammatory cytokine used at 1 ng/mL to treat human chondrocytes [reference compound]", "values": [{"measurement": "Drop in gene expression of TGF-β1", "setting": "[1]; 1 ng/mL IL-1β, 4 hours, vs untreated", "value": 80, "unit": "%"}, {"measurement": "Effect on BBS 3 gene expression", "setting": "[2]; 1 ng/mL IL-1β alone, 4 hours", "value": "no effect"}]}, {"molecule": "COc1c(O)cc(O)c2c(=O)cc(-c3ccccc3)oc12", "note": "[Wogonin, 5,7-dihydroxy-8-methoxyflavone]", "values": [{"measurement": "Average Wheel Use", "setting": "[3]; 10 μM wogonin cream topical, Day 7", "value": "12443**"}, {"measurement": "Average Wheel Use", "setting": "[3]; 10 μM wogonin cream topical, Day 7, listed as wogonin", "value": "significantly higher wheel use than control or vehicle alone"}, {"measurement": "Average Wheel Use", "setting": "[3]; 10 μM wogonin cream topical, Day 14", "value": "22000***"}, {"measurement": "Average Wheel Use", "setting": "[3]; 10 μM wogonin cream topical, Day 14, listed as wogonin", "value": "higher activity wheel use than those receiving 500 μM"}, {"measurement": "Average Wheel Use", "setting": "[3]; 10 μM wogonin cream topical, Day 28", "value": "19358**"}, {"measurement": "Average Wheel Use", "setting": "[3]; 500 μM wogonin cream topical to knee every third day, Day 7", "value": "12608**"}, {"measurement": "Average Wheel Use", "setting": "[3]; 500 μM wogonin cream topical to knee every third day, Day 7, listed as wogonin", "value": "significantly higher wheel use than control or vehicle alone"}, {"measurement": "Average Wheel Use", "setting": "[3]; 500 μM wogonin cream topical, Day 14", "value": "17910**"}, {"measurement": "Average Wheel Use", "setting": "[3]; 500 μM wogonin cream topical, Day 28", "value": "16528*"}, {"measurement": "OA as measured by Modified Mankin score", "setting": "OA mouse model (DMM) [4]; 1 μM wogonin applied topically", "value": "sufficient to significantly reduce OA"}, {"measurement": "Benefit in reducing the progression of OA", "setting": "OA mouse model (DMM) [4]; 10 μM compared to 500 μM wogonin", "value": "greater benefit"}, {"measurement": "Modified Mankin score of OA", "setting": "OA mouse model (DMM) [4]; 10 μM wogonin topical vs DMM plus vehicle, day 28", "value": "statistically (p>0.05) lower"}, {"measurement": "Effect on inflammation and biomarkers", "setting": "OA mouse model (DMM) [4]; dosages above 500 μM wogonin", "value": "too much suppression of inflammation and biomarkers"}, {"measurement": "Effect on OA", "setting": "OA mouse model (DMM) [4]; dosages below 1 μM wogonin", "value": "insufficient to have an effect"}, {"measurement": "Articular cartilage surface (histology)", "setting": "OA mouse model (DMM) [4]; knees treated with 10 μM wogonin, day 28", "value": "essentially normal"}, {"measurement": "Expression of HtrA1 (immunohistochemical staining)", "setting": "HtrA1", "value": "essentially absent"}, {"measurement": "Average (activity wheel use)", "setting": "OA mouse model (DMM) [5]; 500 μM wogonin in 10 μl DMSO topical, Day 7, listed as Wogonin + DMSO", "value": "12608*"}, {"measurement": "Average (activity wheel use)", "setting": "OA mouse model (DMM) [5]; 500 μM wogonin in 10 μl DMSO topical, Day 7, listed as wogonin in DMSO", "value": "significantly higher wheel use than DMSO only"}, {"measurement": "Average (activity wheel use)", "setting": "OA mouse model (DMM) [5]; 500 μM wogonin in DMSO topical, Day 14, listed as DMSO+wogonin", "value": "no difference"}, {"measurement": "Average (activity wheel use)", "setting": "OA mouse model (DMM) [5]; 500 μM wogonin in DMSO topical, Day 14, listed as Wogonin + DMSO", "value": 15191}, {"measurement": "Average (activity wheel use)", "setting": "OA mouse model (DMM) [5]; 500 μM wogonin in DMSO topical, Day 28", "value": 15492}, {"measurement": "Biomarker and Mankin scoring of knees", "setting": "OA mouse model (DMM) [6]", "value": "higher dose of wogonin is beneficial initially but the lower dose remained beneficial throughout the experiment"}, {"measurement": "Drop in gene expression of TGF-β1", "setting": "[1]; 10 μM wogonin pre-treatment 1 hour, then 1 ng/mL IL-1β 4 hours", "value": "< 40", "unit": "%"}, {"measurement": "Lowering of the wogonin response (BBS 3 gene expression) by IL-1β", "setting": "[2]; 10 μM wogonin pre-treatment, then 1 ng/mL IL-1β", "value": "almost half"}, {"measurement": "Increase in gene expression of BBS 3", "setting": "[2]; 10 μM wogonin, 4 hours", "value": 125, "unit": "%"}, {"measurement": "Increase in BBS 3 expression", "setting": "[2]; wogonin, human chondrocytes", "value": 1.25, "unit": "fold"}, {"measurement": "Pain symptoms in mouse formalin test", "setting": "mouse formalin test", "value": "improvement of pain symptoms"}, {"measurement": "MMP-3 expression in articular cartilage", "setting": "MMP-3", "value": "decreased MMP-3 expression"}]}]}
